Values of other authors, collected in patent US20250250278A2, “BRIARANE COMPOUNDS AND THEIR USE” (National Health Research Institutes, priority 2022, published 2025).

Columns and labels:
[1] = system: inducible nitric oxide synthase (iNOS) mRNA; conditions: LPS-challenged murine macrophages
[2] = system: cyclooxygenase-2 (COX-2) mRNA; conditions: LPS-challenged murine macrophages
[3] = not given; remark: listed apart in the source

Substance: excavatolide B [ExcB]
- inhibition of mRNA expression of iNOS [1]: significantly inhibiting
- inhibition of mRNA expression of COX-2 [2]: significantly inhibiting
- solubility in water: poor
- bioavailability [3]: low
